This note sets out measurements from patent EP0040150A1, “Fluoromethylated tyrosine methyl ester” (MERRELL TORAUDE ET COMPAGNIE, priority 1980, dated 1981).

Series [1] in a line: Stability of the compound. The series is classed as physicochemical.
The subject of a further series is catecholamines. The series can be described thus: Catecholamine levels in rat brain and heart after dosing (HPLC with electrochemical detection). The series is classed as in vivo, rats. To be noted: for selectivity (brain catecholamines versus heart catecholamines and 5-HT): compared with the methyl ester. The protocol:
The animals are kept on a constant 12 hour day-night cycle, and body weights are measured daily. The animals are sacrificed by decapitation 12 to 24 hours after receiving the last dose of the test compound. Control animals receive the vehicle alone. Rats in single dose tests were fasted for 24 hours before administration of the test compound whilst rats in multiple dose tests were allowed free access to food and water. Immediately after death, the brain and heart (where appropriate) are removed and separately homogenized either by 50 ml phosphate buffer pH 6.8 for AADC determination or in icecold 0.4 M HC104 containing 0.05% (w/v) EDTA and 0.1% (w/v) sodium bisulfite for catecholamine determination. AADC activity is determined by the ^14C02 trapping method of J. Christenson, Archs. Biochem. Biophys. […] Catecholamines are determined by centrifuging the homogenate, adding the supernatant to alumina buffered to pH 8.0-8.4 to absorb the catecholamines, re-extracting the catecholamines from the alumina with 2.1 M HC104 and determining the catecholamines in the extracts using reversed-phase ion-pair HPLC with electrochemical detection.

A further series has as its system Serotonin (5-HT). Put plainly: Serotonin (5-HT) levels in rat organs after dosing (standard techniques). The series is classed as in vivo, rats. The protocol:
(§1) The animals are kept on a constant 12 hour day-night cycle, and body weights are measured daily. The animals are sacrificed by decapitation 12 to 24 hours after receiving the last dose of the test compound. Control animals receive the vehicle alone. Rats in single dose tests were fasted for 24 hours before administration of the test compound whilst rats in multiple dose tests were allowed free access to food and water.
In the brain, doses of 10 mg/kg and 200 mg/kg produced a 10% reduction and a 70-80% reduction of AADC activity, respectively. […] In the heart, no reduction of norepinephrine is noted up to a dose of 200 mg/kg. When tested after multiple administration of 10, 25, or 50 mg/kg given daily for six days in rats sacrificed 24 hours after the sixth dose, the compound produced a 50% decrease in brain norephinephrine at a dose of 10 mg/kg (daily). […] Serotonin (5-HT) levels, as assessed by standard techniques, are not altered in the brain even at the highest dose tested.

For series [2], the target named is T1, aromatic amino acid decarboxylase (AADC) (Rattus norvegicus, UniProt P14173).
T1 construct: the brain and heart (where appropriate) are removed and separately homogenized; from tissue; host or cells: rat brain and heart homogenates
T1 sequence (P14173 1-480): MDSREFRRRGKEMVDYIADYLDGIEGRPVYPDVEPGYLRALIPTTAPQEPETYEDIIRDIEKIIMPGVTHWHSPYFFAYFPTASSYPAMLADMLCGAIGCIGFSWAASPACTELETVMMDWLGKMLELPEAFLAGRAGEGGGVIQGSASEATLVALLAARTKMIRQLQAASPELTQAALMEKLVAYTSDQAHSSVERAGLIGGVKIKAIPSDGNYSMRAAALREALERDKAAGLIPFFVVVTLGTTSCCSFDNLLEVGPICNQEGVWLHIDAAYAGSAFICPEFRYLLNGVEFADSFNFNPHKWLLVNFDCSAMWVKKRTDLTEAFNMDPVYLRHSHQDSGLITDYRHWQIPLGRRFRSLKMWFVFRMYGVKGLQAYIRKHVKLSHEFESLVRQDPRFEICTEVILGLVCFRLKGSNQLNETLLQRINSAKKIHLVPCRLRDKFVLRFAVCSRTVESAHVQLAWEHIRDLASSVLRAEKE
Put plainly: AADC activity in rat organ homogenates after dosing (14CO2 trapping method, DL-[1-14C]-dopa as substrate). Format: in vivo, rats. The protocol:
as §1
Immediately after death, the brain and heart (where appropriate) are removed and separately homogenized either by 50 ml phosphate buffer pH 6.8 for AADC determination or in icecold 0.4 M HC104 containing 0.05% (w/v) EDTA and 0.1% (w/v) sodium bisulfite for catecholamine determination. AADC activity is determined by the ^14C02 trapping method of J. Christenson, Archs. Biochem. Biophys. 141, 356 (1970) using DL-[1-14C] -dopa as the substrate. Catecholamines are determined by centrifuging the homogenate, adding the supernatant to alumina buffered to pH 8.0-8.4 to absorb the catecholamines, re-extracting the catecholamines from the alumina with 2.1 M HC104 and determining the catecholamines in the extracts using reversed-phase ion-pair HPLC with electrochemical detection.

The next series is described as follows: Solubility in water. The series is classed as physicochemical. To be noted: neutral pH.
The target in a further series is T2, AADC (Homo sapiens, UniProt P20711).
T2 sequence (P20711 1-480): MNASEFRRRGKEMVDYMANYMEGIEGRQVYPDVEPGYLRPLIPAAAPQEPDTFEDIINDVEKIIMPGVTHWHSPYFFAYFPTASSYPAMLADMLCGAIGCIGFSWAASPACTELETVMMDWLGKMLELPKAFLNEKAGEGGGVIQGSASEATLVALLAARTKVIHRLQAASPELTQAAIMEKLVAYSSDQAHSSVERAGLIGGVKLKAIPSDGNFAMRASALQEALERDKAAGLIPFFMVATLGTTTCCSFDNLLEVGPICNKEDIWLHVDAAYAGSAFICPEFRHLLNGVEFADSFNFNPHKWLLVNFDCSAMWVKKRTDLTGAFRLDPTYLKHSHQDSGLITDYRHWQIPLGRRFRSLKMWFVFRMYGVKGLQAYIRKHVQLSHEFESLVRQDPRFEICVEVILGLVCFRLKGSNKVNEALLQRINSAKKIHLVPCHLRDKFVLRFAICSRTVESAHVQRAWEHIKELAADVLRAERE
The series can be described thus: AADC inhibition, general statement (method not given).

[3] abbreviates: heart, up to a dose of 200 mg/kg.

With `CC(C)(C)OC(=O)C(N)(CF)Cc1ccc(O)cc1` (centres unmarked) [tert-butyl 2-fluoromethyl-2-amino-3-(4-hydroxyphenyl)-propionate], the stability entry in series [1] was “relatively unstable”.

Take `COC(=O)C(N)(CF)Cc1ccc(O)cc1` (centres unmarked) [methyl 2-amino-2-fluoromethyl-3-(4-hydroxyphenyl)propionate]: the “additional decrease of norepinephrine produced by yohimbine” value in the series on catecholamines (animals treated for 2 weeks with 10 mg/kg methyl ester, same dose of yohimbine) was “no longer produces an additional decrease”. The “decrease in brain norephinephrine” value with catecholamines (brain, 10 mg/kg daily for six days, sacrificed 24 hours after the sixth dose) was 50%; in the series with catecholamines (brain, higher doses (25 or 50 mg/kg daily for six days) compared with 10 mg/kg) it was “do not give an additional response”. In the series with catecholamines (brain, 50 mg/kg daily for six days), the Brain dopamine decreased was found to be 50%. The Brain norepinephrine decreased is 15-20% in the series with catecholamines (brain, dose 10 mg/kg) and 50% in the series on catecholamines (brain, dose 200 mg/kg). Besides, the dopamine decreased entry in the series with catecholamines (brain, dose 50 mg/kg) was “decreased significantly”; with catecholamines (brain, dose 200 mg/kg) it was 75%. Also, the Brain dopamine result with catecholamines (brain, lower doses (10, 25 mg/kg daily for six days)) is reported as “no significant effect”. Further, the “endogenous catecholamine levels in the brain” value in the series with catecholamines (brain, summary statement) is on record as “effective in lowering”. In addition, in the series with catecholamines (combined with yohimbine, up to 8 days of methyl ester treatment), the “decrease of norepinephrine over yohimbine” value is listed as “small additional decrease”. The Heart norepinephrine entry in the series on catecholamines (heart, multiple administration (10, 25 or 50 mg/kg daily for six days), any dose) is “not significantly changed”. Besides, the “reduction of norepinephrine in the heart” value in the series on catecholamines (setting [3]) is “no reduction”. Further, the “endogenous 5-HT levels in the brain and heart” value in the series with Serotonin (5-HT) (brain and heart, summary statement) is listed as “substantially unaltered”. Moreover, the “Serotonin (5-HT) levels in the brain” value in the series on Serotonin (5-HT) (brain, multiple administration, even at the highest dose tested) is “not altered”. The “inhibition of AADC activity” value in series [2] (animals pretreated with haloperidol, compared with non-haloperidol treated animals) is recorded as “more pronounced”. Further, in series [2] (brain, co-administration of -methyl tyrosine (inhibitor of tyrosine hydroxylase)), the “extent of inhibition of AADC activity in the brain” value was “reduces the extent of inhibition”. The “AADC activity in the heart” value in series [2] (setting [3]) is “not reduced significantly”. Further, in series [2] (rat, brain, dose 10 mg/kg, read-out: reduction of AADC activity), the inhibition at 10 mg/kg worked out at 10%.

Turning to `NC(CF)(Cc1ccc(O)cc1)C(=O)O` (stereo not drawn) [α-fluoromethyl tyrosine, 2-fluoromethyl-2-amino-3-(4-hydroxyphenyl)-propionic acid], the “selectivity (brain catecholamines versus heart catecholamines and 5-HT)” value with catecholamines is on record as “same degree of selectivity is not found”. In addition, the solubility in water result in “Solubility in water” is listed as “insoluble”. The AADC inhibition result at AADC is given as “weak AADC inhibitor”.

In the case of `COC(=O)[C@@H]1[C@H]2C[C@H]3c4[nH]c5ccccc5c4CCN3C[C@@H]2CC[C@@H]1O` [Yohimbine, reference compound], in the series on catecholamines (yohimbine alone), the “metabolite MOPEG-sulfate” value was “increase” and the norepinephrine result was “decrease”.

Consider `NC(CF)(Cc1ccc(O)c(O)c1)C(=O)O` (centres unmarked) [Fluoromethyl dopa, reference compound], for which the “selectivity (brain catecholamines versus heart catecholamines and 5-HT)” value in the series with catecholamines was “does not exhibit the selectivity”.
